Measurements published in patent US9636317B2, “Compositions and methods of use of phorbol esters” (priority 2007, dated 2017).
Values joined by “and” are separate entries in the source; they are usually repeats but may differ in a detail not shown here. Equal entries are not always repeated. “Also recorded” adds a separate entry of the source.

Columns and labels:
[1] = tested on: CD3, CD4 and CD8 in peripheral blood; assay: First clinical study of HIV+ patients: CD3, CD4, CD8 levels by flow cytometry; assay type: in vivo, human; set-up: CD4 / CD8 / CD3: unit not given here; conditions: for CD3 / CD4 / CD8: one value per patient
Experimental: (§1) Twelve symptomatic patients (five males and seven females) between the ages of 35 to 52 all of whom were infected with HIV in 1995 through blood transfusion and were refractory to standard treatments for HIV were treated with TPA. Each patient was administered a weight adjusted dosage of TPA (75 μg/sq m) in 200 ml of sterile saline by i.v. over one hour. This dose was administered once daily for the first three days of treatment. Each patient was then given this dose every other day for days 4 to 18 followed by a six month rest period prior to a second course of treatment according to the same protocol.
[…] Levels of CD3, CD4 and CD8 in peripheral blood were measured using monoclonal antibodies (Becton Dickson Scientific Co., Franklin Lakes, N.J.) and a flow cytometer (B.D. Bioscience, San Diego, Calif.).

[2] = tested on: HIV patients; assay: Third clinical study of HIV+ patients: symptoms and side effects (incl. case studies); assay type: in vivo, human
Experimental: Six patients, two males and four females between the ages of 37 and 52 years of age (Patients #13-18), were treated with TPA. Four of these patients previously received TPA treatment in combination with anti-HIV drugs in the two previous clinical studies. The two remaining patients had never been treated with TPA, but had previously received anti-HIV drug regimens. All treatments were stopped three days prior to the initiation of the third clinical study and were not resumed until 60 days after completion of the TPA treatment. The resumption of the standard HIV treatments was required by local health authorities.
Each patient in the study received 150 μg of TPA in 200 ml of sterile saline by intravenous infusion over a 1.5 to 2 hour period daily for 60 days for a total administered dose of 9.0 mg. Following completion of the 60 days of TPA therapy, these patients remained under observation for an additional 60 days though the received no further treatment.
Results of treatment of initially symptomatic AIDS patients treated with TPA according to the protocols of Example III, IV, and V. Patients who participated in multiple studies are in some cases identified by more than one patient number. All patient identification numbers correspond to the patient numbers in Tables 1-7.

[3] = Treatment of carpal tunnel syndrome (patient case); assay type: in vivo, human
Text: Patient with burning, tingling, pain and numbness in their fingers.

[4] = tested on: HIV; assay: First clinical study of HIV+ patients: blood HIV count; assay type: in vivo
Experimental: as §1

[5] = tested on: primary AML cells; assay: Primary AML cultures ex vivo: cell viability, apoptosis assays and Western analysis of ERK; assay type: cell-based, human
Text: In addition to protein kinase C and ERK activation, TPA is a known inducer of NF-κB, a pro-survival transcription factor often constitutively active in AML blasts and leukemic stem cells.

[6] = Treatment of rheumatoid arthritis (patient case); assay type: in vivo, human; conditions: multiple injections of TPA
[7] = Four days after TPA, 75 μg/sq m i.v.
[8] = 15th day during TPA (patient 07)
[9] = 4 days after initial TPA, one value per patient
[10] = 15 days after initial TPA, one value per patient
[11] = 25 days after initial TPA, one value per patient

Question: Which CD3 ([1]; After TPA (patients 09-12)) does the source give for CCCCCCCCCCCCCC(=O)O[C@@H]1[C@@H](C)[C@@]2(O)[C@@H](C=C(CO)C[C@]3(O)C(=O)C(C)=C[C@@H]23)[C@@H]2C(C)(C)[C@]12OC(C)=O [TPA, 12-O-tetradecanoylphorbol-13-acetate] here?
Answer: 2920 and 1077 and 874 and 362

Question: What about the CD4 ([1]; After TPA (patients 09-12)) of the same compound?
Answer: 663 and 445 and 131 and 78

Question: What about the CD8 ([1]; After TPA (patients 09-12)) of the same compound?
Answer: <2000 and 591 and 724 and 268

Question: And the CD3 ([1]; Forty two days after TPA)?
Answer: 799 and 424 and 581 and 1643 and 537 and 146 and 858 and 203

Question: What about the CD4 ([1]; Forty two days after TPA) of the same compound?
Answer: 54 and 33 and 44 and 191 and 49 and 1 and 241 and 2

Question: What about the CD8 ([1]; Forty two days after TPA) of the same compound?
Answer: 700 and 374 and 493 and 1429 and 429 and 139 and 527 and 111

Question: And the CD3 [1, 7]?
Answer: 427 and 941 and 1282 and 808 and 598 and 739 and 299 and 2616

Question: What about the CD4 [1, 7] of the same compound?
Answer: 36 and 123 and 119 and 179 and 7 and 318 and 3 and 105

Question: And the CD8 [1, 7]?
Answer: 366 and 770 and 1330 and 570 (2×) and 355 and 180 and <2000

Question: What about the “change in CD3, CD4, or CD8 levels (summary of Table 1)” value ([1]; twelve patients) of the same compound?
Answer: no consistent change or correlation was observed

Question: What about the “recurrence of AIDS symptoms” value ([2]; 120 day observation and treatment period) of the same compound?
Answer: no recurrence of AIDS symptoms

Question: And the “side effects of TPA treatment (individual patient)” value ([2]; protocol of Example V)?
Answer: local irritation due to a leaking needle; also recorded: a fever on one occasion; also recorded: skin irritation from a leaking needle; also recorded: no side effects

Question: And the “AIDS symptoms during and after treatment (individual patient)” value ([2]; protocol of Example V, antiviral therapy stopped)?
Answer: No AIDS symptoms returned; also recorded: remains symptom free; also recorded: No AIDS symptoms occurred

Question: What about the “fever during TPA infusion” value ([2]; protocol of Example V, individual patients) of the same compound?
Answer: 38-38.5 °C and 38-39 °C

Question: And the use of hands [3]?
Answer: regained full use of their hands

Question: And the “BLOOD HIV COUNT LOG VALUE” [4, 8]?
Answer: 4.988

Question: What about the “BLOOD HIV COUNT RESULTS” value [4, 8] of the same compound?
Answer: 9.74 × 10^4 copies/ml

Question: And the “BLOOD HIV COUNT LOG VALUE” [4, 9]?
Answer: 6.899 and 4.910 and 7.243 and 5.974 and 4.160 and 5.179 and 5.959 and 6.151

Question: What about the “BLOOD HIV COUNT RESULTS” value [4, 9] of the same compound?
Answer: 7.92 × 10^6 copies/ml and 8.13 × 10^4 copies/ml and 1.75 × 10^7 copies/ml and 9.42 × 10^5 copies/ml and 1.44 × 10^4 copies/ml and 1.51 × 10^5 copies/ml and 9.09 × 10^5 copies/ml and 1.41 × 10^4 copies/ml

Question: And the “BLOOD HIV COUNT LOG VALUE” ([4]; 7 days after TPA (patient 06))?
Answer: 6.357

Question: And the “BLOOD HIV COUNT RESULTS” value ([4]; 7 days after TPA (patient 06))?
Answer: 2.28 × 10^6 copies/ml

Question: What about the “BLOOD HIV COUNT LOG VALUE” [4, 10] of the same compound?
Answer: 4.306 and 6.801 and 3.786 and 6.614 and 7.369 and 5.274 and 6.737

Question: What about the “BLOOD HIV COUNT RESULTS” value [4, 10] of the same compound?
Answer: 2.02 × 10^4 copies/ml and 6.33 × 10^6 copies/ml and 6.11 × 10^3 copies/ml and 1.11 × 10^6 copies/ml and 2.34 × 10^7 copies/ml and 1.88 × 10^5 copies/ml and 5.46 × 10^6 copies/ml

Question: And the “BLOOD HIV COUNT LOG VALUE” [4, 11]?
Answer: 4.416 and 6.941 and 5.934 and 4.084 and 6.745 and 3.724 and 6.890

Question: What about the “BLOOD HIV COUNT RESULTS” value [4, 11] of the same compound?
Answer: 2.60 × 10^4 copies/ml and 8.72 × 10^6 copies/ml and 8.59 × 10^5 copies/ml and 1.21 × 10^4 copies/ml and 5.56 × 10^6 copies/ml and 5.30 × 10^3 copies/ml and 7.77 × 10^6 copies/ml and undetectable

Question: What about the “BLOOD HIV COUNT LOG VALUE” ([4]; 25 days after initial TPA, sample taken from the second cycle treatment (patients 10-12)) of the same compound?
Answer: 4.446 and 5.096 and 3.798

Question: And the “change of viral load (summary of Table 2)” value ([4]; twelve patients)?
Answer: five patients having an increase in HIV and no change or a reduction in seven others

Question: What about the “cytotoxic effect (cell viability and apoptosis assays)” value ([5]; AML cases) of the same compound?
Answer: direct therapeutic cytotoxic effects in at least a subset of AML cases

Question: And the phospho-ERK pro-survival signal ([5]; after 24 hour ex vivo exposure)?
Answer: loss of the phospho-ERK pro-survival signal

Question: What about the “ERK phosphorylation (Western analysis)” value ([5]; all primary cultures analyzed, by 1 hour in culture) of the same compound?
Answer: strongly induced ERK phosphorylation

Question: What about the “joint stiffness and hand function” value [6] of the same compound?
Answer: reduction in stiffness in the joints and an increase in functionality in their hands
